The record followed here is patent US9139581B2 (PORTOLA PHARMACEUTICALS, INC., priority 2008, dated 2015).

pIC50: −log10 of the molar value. Read-outs that look alike come from different tables or passages of the source.

One may read the pIC50 as −log10 of the IC50, conventionally taken in molar units.

For assay [1], the target named is T1, full length active recombinant SYK enzyme (Homo sapiens, UniProt P43405).
T1 construct: full length active recombinant SYK enzyme (Millipore, Calif.); purchased Millipore
The assay is described as follows: Inhibition of Syk tyrosine phosphorylation activity (LANCE TR-FRET). The conditions noted are these: 1 nM SYK, 100 μM ATP. It counts as biochemical. The procedure, abridged: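 The reaction is quenched with buffer holding Eu-anti-phosphotyrosine and streptavidin-APC, and detection runs 1 hr at room temperature. TR-FRET is read and IC50s come from non-linear regression.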

The test system of assay [2] is human platelet-rich plasma (PRP). The assay is described as follows: Inhibition of Convulxin-mediated platelet aggregation in vitro (PRP). It counts as cell-based. Particulars: Table 4, Convulxin-induced aggregation in human PRP, unit inferred. As to the method:
The ability for candidate molecules to inhibit syk-mediated platelet functions are tested by measuring the inhibition the GPVI-specific agonist Convulxin-induced human platelet calcium-mobilization or aggregation. Calcium-mobilization is assessed in human washed platelets in a 96-well microtiter format.
Inhibition of Convulxin-Mediated Platelet Aggregation In Vitro
Platelet-rich plasma (PRP) is prepared by centrifugation of whole blood at 160×g for 20 minutes at room temperature. The PRP layer is removed, transferred to a new tube, and the platelet count is adjusted, if advantageous, to achieve a platelet concentration of ˜3×10^8 platelets/ml using platelet-poor plasma (PPP). PPP is prepared by centrifugation of the remaining blood sample (after removal of PRP) for 20 minutes at 800×g. This preparation of PRP can subsequently be used for aggregation assays in either a 96-well plate or standard cuvette aggregometry.
Inhibition of Convulxin-induced aggregation is determined in 96-well flat-bottom microtiter plates using a microtiter plate shaker and plate reader similar to the procedure described by Frantantoni et al., Am. J. Clin. Pathol. […] All steps are performed at room temperature. For 96-well plate aggregation using platelet-rich plasma (PRP), the total reaction volume of 0.2 ml/well includes 190 μl of PRP (˜3×10^8 platelets/ml, see above), and 5 μl of either serial dilution of test compounds in 30% DMSO or buffer (for control wells). After 20 minutes preincubation at room temperature 5 μl of 320 ng/ml Convulxin agonist solution is added to each well to give a final concentration of 8 ng/ml Convulxin. The plates are then agitated for 5 min on a microtiter plate shaker and the 5 minute reading is obtained in the microtitre plate reader (Softmax, Molecular Devices, Menlo Park, Calif.). Aggregation is calculated from the decrease of OD at 650 nm at t=5 minutes. IC50s were derived by non-linear regression analysis.
Inhibition of Convulxin-induced aggregation was also determined for cuvette light transmittance aggregation assays, serial dilutions (1:2) of test compounds were prepared in 30% DMSO in a 96 well V-bottom plate (final DMSO concentration in the cuvette was 0.3%). […] IC50s were derived by non-linear regression analysis.

[3] abbreviates: Table 3, read-out: Syk IC50 code.

On to `CC(=O)N1CCN(c2ccc(Nc3ncc(F)c(N4CCC(CN)CC4)n3)cc2)CC1` [Example 18, 1-(4-(4-(4-(4-(aminomethyl)piperidin-1-yl)-5-fluoropyrimidin-2-ylamino)phenyl)piperazin-1-yl)ethanone], for which the pIC50 in assay [1] (Table 4, read-out: syk IC50) was 7.00 to 8.00; in assay [2], 6.71.
With `CC(=O)N1CCN(c2ccc(Nc3nc(N4CCC(CN)CC4)c4c(C#N)c[nH]c4n3)cc2)CC1` [Example 14, 2-(4-(4-acetylpiperazin-1-yl)phenylamino)-4-(4-(aminomethyl)piperidin-1-yl)-7H-pyrrolo[2,3-d]pyrimidine-5-carbonitrile], the pIC50 in assay [1] (setting [3]) is 7.00 to 8.00; in assay [1] (Table 4, read-out: syk IC50), 7.00 to 8.00; in assay [2], 4.30.
With `CC(=O)N1CCN(c2ccc(Nc3nc(N4CCC(CN)CC4)c4cc[nH]c4n3)cc2)CC1` [Example 11, 1-(4-(4-(4-(4-(aminomethyl)piperidin-1-yl)-7H-pyrrolo[2,3-d]pyrimidin-2-ylamino)phenyl)piperazin-1-yl)ethanone], the pIC50 was 8.00 to 9.00 in assay [1] (Table 4, read-out: syk IC50) and 5.28 in assay [2].
In the case of `CC(=O)N1CCN(c2ccc(Nc3nc(N4CCC[C@H](N)C4)c4cc[nH]c4n3)cc2)CC1` [(S)-1-(4-(4-(4-(3-aminopiperidin-1-yl)-7H-pyrrolo[2,3-d]pyrimidin-2-ylamino)phenyl)piperazin-1-yl)ethanone], the pIC50 in assay [1] (Table 4, read-out: syk IC50) is 6.00 to 7.00; in assay [2] it was 4.86.
For `NCC1CCN(c2nc(Nc3ccc4c(c3)CCC(=O)N4)ncc2F)CC1` [Example 33, 6-(4-(4-(aminomethyl)piperidin-1-yl)-5-fluoropyrimidin-2-ylamino)-3,4-dihydroquinolin-2(1H)-one], the pIC50 is 7.00 to 8.00 in assay [1] (Table 4, read-out: syk IC50) and 6.47 in assay [2].
`CC(=O)N1CCN(c2ccc(Nc3nc(N4CCC(CN)CC4)c4nc[nH]c4n3)cc2)CC1` [Example 15, 1-(4-(4-(6-(4-(aminomethyl)piperidin-1-yl)-9H-purin-2-ylamino)phenyl)piperazin-1-yl)ethanone]: the pIC50 in assay [1] (setting [3]) was 7.00 to 8.00; in assay [1] (Table 4, read-out: syk IC50), 7.00 to 8.00; in assay [2], 4.30.
With `NCC1CCN(c2nc(Nc3ccc(C(N)=O)cc3)ncc2F)CC1` [Example 31, 4-(4-(4-(aminomethyl)piperidin-1-yl)-5-fluoropyrimidin-2-ylamino)benzamide], the pIC50 in assay [1] (Table 4, read-out: syk IC50) was 7.00 to 8.00; in assay [2], 6.46.
For the compound `CC(=O)N1CCN(c2ccc(Nc3nc(N4CCCC(C(N)=O)C4)c4cc[nH]c4n3)cc2)CC1` (centres unmarked) [Example 9, 1-(2-(4-(4-acetylpiperazin-1-yl)phenylamino)-7H-pyrrolo[2,3-d]pyrimidin-4-yl)piperidine-3-carboxamide], the pIC50 in assay [1] (Table 4, read-out: syk IC50) is 6.00 to 7.00; in assay [2] it was 4.91.
With `NCC1CCN(c2nc(Nc3ccc4cn[nH]c4c3)ncc2F)CC1` [Example 16, N-(4-(4-(aminomethyl)piperidin-1-yl)-5-fluoropyrimidin-2-yl)-1H-indazol-6-amine], the pIC50 in assay [1] (Table 4, read-out: syk IC50) is 7.00 to 8.00; in assay [2], 6.53.
Consider `CC(=O)N(C)c1ccc(Nc2ncc(F)c(N3CCC(CN)CC3)n2)cc1` [Example 29, N-(4-(4-(4-(aminomethyl)piperidin-1-yl)-5-fluoropyrimidin-2-ylamino)phenyl)-N-methylacetamide], for which the pIC50 in assay [1] (Table 4, read-out: syk IC50) was 7.00 to 8.00; in assay [2], 6.50.
Turning to `CN(C(=O)CCO)c1ccc(Nc2nc(NC3CCC3)c3cc[nH]c3n2)cc1` [Example 86, N-(4-(4-(cyclobutylamino)-7H-pyrrolo[2,3-d]pyrimidin-2-ylamino)phenyl)-3-hydroxy-N-methypropanamide], the pIC50 in assay [1] (setting [3]) was 7.00 to 8.00.
As to `O=C1CCc2cc(Nc3nc(NC4CC4)c4c(-c5ccncc5)c[nH]c4n3)ccc2N1` [Example 48, 6-(4-(cyclopropylamino)-5-(pyridin-4-yl)-7H-pyrrolo[2,3-d]pyrimidin-2-ylamino)-3,4-dihydroquinolin-2(1H)-one], the pIC50 in assay [1] (setting [3]) is 7.00 to 8.00.
As to `NCC1CCN(c2nc(Nc3ccc(N4CCNCC4)cc3)nc3[nH]ccc23)CC1` [Example 10, 4-(4-(aminomethyl)piperidin-1-yl)-N-(4-(piperazin-1-yl)phenyl)-7H-pyrrolo[2,3-d]pyrimidin-2-amine], the pIC50 is 8.00 to 9.00 in assay [1] (Table 4, read-out: syk IC50) and 4.48 in assay [2].
For the compound `CC(=O)N(C)c1ccc(Nc2nc(NCCN)c3cc[nH]c3n2)cc1` [Example 64, N-(4-(4-(2-aminoethylamino)-7H-pyrrolo[2,3-d]pyrimidin-2-ylamino)phenyl)-N-methylacetamide], the pIC50 in assay [1] (setting [3]) is 6.00 to 7.00.
Same read-out and setting: the same measure for `NCC1CCN(c2nc(Nc3ccc4c(c3)CCC(=O)N4)ncc2C2CC2)CC1` [Example 139, 6-(4-(4-(aminomethyl)piperidin-1-yl)-5-cyclopropylpyrimidin-2-ylamino)-3,4-dihydroquinolin-2(1H)-one]: 6.00 to 7.00; for `CC(=O)c1c[nH]c2nc(Nc3ccc4cn[nH]c4c3)nc(NC3CC3)c12` [Example 42, 1-(2-(1H-indazol-6-ylamino)-4-(cyclopropylamino)-7H-pyrrolo[2,3-d]pyrimidin-5-yl)ethanone]: 6.00 to 7.00.
In the case of `CNc1nc(Nc2ccc3cn[nH]c3c2)nc2[nH]cc(-c3cccnc3)c12` [Example 3, N2-(1H-indazol-6-yl)-N4-methyl-5-(pyridin-3-yl)-7H-pyrrolo[2,3-d]pyrimidine-2,4-diamine], the pIC50 in assay [1] (setting [3]) is 7.00 to 8.00.
The same measure, in the same setting: the same measure for `N#Cc1c[nH]c2nc(Nc3ccc4c(c3)CCC(=O)N4)nc(NC3CC3)c12` [Example 103, 4-(cyclopropylamino)-2-(2-oxo-1,2,3,4-tetrahydroquinolin-6-ylamino)-7H-pyrrolo[2,3-d]pyrimidine-5-carbonitrile]: 8.00 to 9.00; for `NC(=O)c1cnc(-[n+]2ccn(-c3ccc(N)cc3)c2)nc1NC1CC1` [Example 6, 1-(4-aminophenyl)-3-(5-carbamoyl-4-(cyclopropylamino)pyrimidin-2-yl)-1H-imidazol-3-ium]: < 6.00.
With `CC(C)(CN)CNc1nc(Nc2ccc3cn[nH]c3c2)nc2[nH]ccc12` [Example 60, N4-(3-amino-2,2-dimethylpropyl)-N2-(1H-indazol-6-yl)-7H-pyrrolo[2,3-d]pyrimidine-2,4-diamine], the pIC50 in assay [1] (setting [3]) is < 6.00.
`CC(=O)N1CCN(c2ccc(Nc3nc(NC4CCS(=O)(=O)C4)c4cc[nH]c4n3)cc2)CC1` (centres unmarked) [Example 100A, 1-(4-(4-(4-(1,1-dioxy-tetrahydrothiophen-3-ylamino)-7H-pyrrolo[2,3-d]pyrimidin-2-ylamino)phenyl)piperazin-1-yl)ethanone]: the pIC50 in assay [1] (setting [3]) was < 6.00.
For `CC(=O)N(C)c1ccc(Nc2ncc(F)c(N3CCC(CNC(=O)OC(C)(C)C)CC3)n2)cc1` [Example 28, tert-butyl (1-(5-fluoro-2-(4-(N-methylacetamido)phenylamino)pyrimidin-4-yl)piperidin-4-yl)methylcarbamate], the pIC50 in assay [1] (setting [3]) was < 6.00; in assay [1] (Table 4, read-out: syk IC50) it was < 6.00.
As to `COC(=O)N(C)c1ccc(Nc2nc(NC3CCC3)c3cc[nH]c3n2)cc1` [Example 72, Methyl 4-(4-(cyclobutylamino)-7H-pyrrolo[2,3-d]pyrimidin-2-ylamino)phenyl(methyl)carbamate], in assay [1] (setting [3]), the negative logarithm of the IC50 (pIC50) is 6.00 to 7.00.
For the compound `NC(=O)C1CCCN(c2nc(Nc3ccc(N4CCNCC4)cc3)nc3[nH]ccc23)C1` (centres unmarked) [Example 8, 1-(2-(4-(piperazin-1-yl)phenylamino)-7H-pyrrolo[2,3-d]pyrimidin-4-yl)piperidine-3-carboxamide], the pIC50 in assay [1] (Table 4, read-out: syk IC50) is 6.00 to 7.00; in assay [2], 4.60.
Regarding `CC(=O)N1CCN(c2ccc(Nc3nc(NCC4CCNCC4)c4c(-c5ccncc5)c[nH]c4n3)cc2)CC1` [Example 44, 1-(4-(4-(4-(piperidin-4-ylmethylamino)-5-(pyridin-4-yl)-7H-pyrrolo[2,3-d]pyrimidin-2-ylamino)phenyl)piperazin-1-yl)ethanone], the pIC50 in assay [1] (setting [3]) is < 6.00.
As for `N#Cc1c[nH]c2nc(Nc3ccc4cn[nH]c4c3)nc(NC3CC3)c12` [Example 40, 2-(1H-indazol-6-ylamino)-4-(cyclopropylamino)-7H-pyrrolo[2,3-d]pyrimidine-5-carbonitrile], the pIC50 in assay [1] (setting [3]) was 7.00 to 8.00.
